≈ marks a conversion by molar mass, not a printed value. Like-named read-outs stand apart in the source and are kept apart here.
Key:
[1] = design: method as in PMID 29403987; conditions: healthy volunteers, single oral dose of albendazole 400 mg; ref [41]; cited from earlier work
[2] = cited from earlier work
[3] = PBPK model simulation in Healthy Human Volunteer Population; conditions: healthy volunteers, albendazole 400 mg oral
Description: Clinically observed plasma profiles of ABZ and ABZ_SO were digitized from a published study using WebPlotDigitizer (Version 4.2, Austin, TX, USA), and the systemic exposure parameters (Cmax, AUC) were used to verify the model. PBPK model simulations were performed using the Healthy Human Volunteer Population according to the design of the referenced clinical study: 10 subjects (6 male, 4 female), aged 21 to 44 years, single oral dose of albendazole (400 mg). Model verification was based on visual inspection of the simulated ABZ and ABZ_SO mean plasma versus time profiles compared to observed data, and the fold error (ratio of model predicted and observed values) for Cmax and AUC of ABZ and ABZ_SO.

[4] = design: method as in Literature; conditions: ref Literature; cited from earlier work
CYP3A4 = conditions: ref [36]; cited from earlier work
[5] = design: method as in PMID 7571717; conditions: in humans; ref [43]; cited from earlier work
FMO3 = conditions: ref [36]; cited from earlier work
[6] = Particle size distribution by laser diffraction; assay type: physicochemical; conditions: pure ABZ
Description: Particle size distribution (PSD) data for the marketed formulation are not publicly available. […] The particle size distribution of ABZ was measured by laser diffraction using a Mastersizer 3000 equipped with Aero S (dry dispersion feeder unit). The instrument software was used to calculate d10, d50, and d90, representing the volume percentage or portion of particles below the 10th, 50th, and 90th percentiles, respectively. PSD was characterized as a Weibull distribution function, and the data were analyzed to estimate the Weibull parameter values and mean radiuses, which served as the input parameters in the model development.

[7] = Equilibrium solubility by shake flask method; assay type: physicochemical
Description: The equilibrium solubility of ABZ was measured by the shake flask method at 37 ± 2 °C in different pH solution systems: 0.1 N HCl (pH 1.20 ± 0.01 and pH 2.0 ± 0.01), 0.02 M acetate buffer (pH 4.5 ± 0.02), and 0.05 M phosphate buffer (pH 6.8 ± 0.01). Solubility was also determined in FaSSGF (pH 1.6 ± 0.01), FaSSIF (pH 6.5 ± 0.01), and FeSSIF (pH 5.0 ± 0.01) containing bile concentrations of 0.08 mM, 3 mM, and 15 mM, respectively. For each experiment, an excess amount of ABZ (~10 mg) was dispersed in 3 mL of solution. A sample was collected after 72 h and filtered using 0.45 µm polytetrafluoroethylene membrane disc filters (Pall Corp., New York, NY, USA). The samples were analyzed using a validated HPLC method. All experiments were performed in triplicate. The pH solubility profile and biorelevant solubility data for ABZ were analyzed using Simcyp™ In Vitro Data Analysis (SIVA, Certara UK Ltd., Sheffield, UK) software in order to estimate intrinsic solubility and the micelle-buffer partition coefficient (log Km:w). These parameter values were incorporated into the PBPK model for ABZ.

[8] = Transfer system experiment (FaSSGF to FaSSIF) for precipitation kinetics; assay type: physicochemical; conditions: for Precipitation rate constant (PRC): max. value
Description: These experiments were carried out in order to characterize the precipitation kinetics of ABZ in a system designed to mimic the physiologic conditions in the GI tract as the drug moves from the stomach to the small intestine, where precipitation is inevitable and limits the availability of the soluble drug for absorption. To simulate the impact on solubility when the drug transits from the stomach into the intestine, the experimental system (Figure 1) consisted of two physiologically relevant compartments with allowances for modifications in transfer rate (representing the GI emptying rate), paddle speeds (representing the hydrodynamics inside the GI tract), and composition (representing fasted vs. fed conditions). A conventional dissolution system (Distek 5100, Distek Inc., North Brunswick Township, NJ, USA) with a USP-II paddle method was utilized. The gastric compartment contained FaSSGF media (250 mL, pH 1.6), and FaSSIF media (500 mL, pH 6.5), which constituted the intestinal compartment. FaSSIF was prepared with a higher buffer capacity to minimize pH changes after the complete transfer of the simulated gastric media. The paddle speed was maintained at 100 rpm for both compartments. The transfer was initiated after 30 min at a constant rate of 7 mL/min using an Econo™ Gradient pump (Bio-Rad Laboratories, Inc., Hercules, CA, USA). The following experiments were carried out: (a) 40 mg of free ABZ base (neat API) to maintain the sink condition in the gastric media. (b) Marketed immediate-release formulation (equivalent to 40 mg of ABZ) to maintain the sink condition and to determine the effect of excipients on promoting the supersaturation state. (c) Marketed immediate-release tablet formulation (400 mg of ABZ).
The gastric compartment was sampled at 5, 15, and 30 min, at which time the transfer to the intestinal compartment was initiated. Then, samples were collected from the intestinal compartment for an additional 90 min (32, 35, 40, 45, 50, 60, 75, 90, 105, and 120 min). Samples were filtered through 0.45 µm PTFE filters and immediately diluted with the mobile phase before quantitative analysis by HPLC. All dissolution experiments were performed in triplicate.

physchem = conditions: aqueous pH solution systems (pH solubility profile), 37 °C, aqueous buffer, thermodynamic from solid
Description: The equilibrium solubility of ABZ was measured by the shake flask method at 37 ± 2 °C in different pH solution systems: 0.1 N HCl (pH 1.20 ± 0.01 and pH 2.0 ± 0.01), 0.02 M acetate buffer (pH 4.5 ± 0.02), and 0.05 M phosphate buffer (pH 6.8 ± 0.01). Solubility was also determined in FaSSGF (pH 1.6 ± 0.01), FaSSIF (pH 6.5 ± 0.01), and FeSSIF (pH 5.0 ± 0.01) containing bile concentrations of 0.08 mM, 3 mM, and 15 mM, respectively [25]. For each experiment, an excess amount of ABZ (~10 mg) was dispersed in 3 mL of solution. A sample was collected after 72 h and filtered using 0.45 µm polytetrafluoroethylene membrane disc filters (Pall Corp., New York, NY, USA). The samples were analyzed using a validated HPLC method. All experiments were performed in triplicate. The pH solubility profile and biorelevant solubility data for ABZ were analyzed using Simcyp™ In Vitro Data Analysis (SIVA, Certara UK Ltd., Sheffield, UK) software in order to estimate intrinsic solubility and the micelle-buffer partition coefficient (log Km:w). These parameter values were incorporated into the PBPK model for ABZ.
Data from dissolution experiments were used to estimate intrinsic solubility and bile-salt micelle-mediated solubilization using SIVA. Micelle buffer partition coefficients (log Km:w) for ABZ, both in neutral and ionic species of ABZ, were estimated using observed solubilities in biorelevant media.

Compound: CCC[S+]([O-])c1ccc2[nH]c(NC(=O)OC)nc2c1 (stereo not shown) [ABZ_SO, albendazole sulfoxide]
- AUC0–∞ (observed) [1]: 3475 ng·h/mL
- Cmax (Observed) [1]: 193.5 ng/mL
- pKa1 (Ampholyte) ([2]; PBPK input, ref [35]): 9.79
- Log Po:w ([2]; PBPK input, ref [38]): 1.17
- Fold error, AUC0–∞ (predicted parameter/observed parameter) [3]: 0.97
- Fold error, Cmax (predicted parameter/observed parameter) [3]: 1.01
- fu (fraction unbound in plasma) [4]: 0.3

Compound: CCCSc1ccc2nc(NC(=O)OC)[nH]c2c1 [ABZ, Albendazole]
- Km (CYP3A4): 10.1 µM
- Vmax (CYP3A4): 369 pmol/min/pmol
- absolute oral bioavailability [5]: < 5%
- AUC0–∞ (observed) [1]: 53.0 ng·h/mL
- Cmax (Observed) [1]: 9.55 ng/mL
- Km (FMO3): 9.6 µM
- Vmax (FMO3): 1103 pmol/min/pmol
- Log Po:w ([2]; PBPK input, ref [34]): 2.7
- pKa1 (Ampholyte) ([2]; PBPK input, ref [35]): 10.3
- pKa2 (Ampholyte) ([2]; PBPK input, ref [35]): 2.8
- pKa1 (Ampholyte) ([2]; PBPK input, ref [35], listed as Albendazole): 10.26
- BCS class ([2]; low solubility and high permeability): BCS class II
- d10 ([6]; laser diffraction): 0.95 ± 0.10 µm
- d50 ([6]; laser diffraction): 4.1 ± 0.64 µm
- d90 ([6]; laser diffraction): 22 ± 1.3 µm
- Particle size distribution, Mean Radius ([6]; polydispersed): 7.52 µm
- Particle size distribution, Weibull Alpha ([6]; polydispersed): 1.014
- Particle size distribution, Weibull Beta ([6]; polydispersed): 8.732
- solubility at 72 h ([7]; 0.02 M acetate buffer, 37 °C, pH 4.5, aqueous buffer, thermodynamic from solid, pH 4.5 Acetate buffer, 37 ± 2.0 °C, read-out: Solubility): 8 ± 2 µg/mL (≈ 30.2 µM)
- solubility at 72 h ([7]; 0.05 M phosphate buffer, 37 °C, pH 6.8, aqueous buffer, thermodynamic from solid, pH 6.8, read-out: solubility): ~5 µg/mL (≈ 18.8 µM)
- solubility at 72 h ([7]; 0.05 M phosphate buffer, 37 °C, pH 6.8, aqueous buffer, thermodynamic from solid, pH 6.8 Phosphate buffer, 37 ± 2.0 °C, read-out: Solubility): 5 ± 1 µg/mL (≈ 18.8 µM)
- solubility at 72 h ([7]; 0.1 N HCl, 37 °C, pH 1.2, simulated gastric fluid, thermodynamic from solid, pH 1.2, read-out: maximum solubility): ~500 µg/mL (≈ 1880 µM)
- solubility at 72 h ([7]; 0.1 N HCl, 37 °C, pH 1.2, simulated gastric fluid, thermodynamic from solid, pH 1.2 HCl buffer, 37 ± 2.0 °C, read-out: Solubility): 515 ± 45 µg/mL (≈ 1940 µM)
- solubility at 72 h ([7]; 0.1 N HCl, pH 2, pH 2.0 HCl buffer, 37 ± 2.0 °C, read-out: Solubility): 25 ± 5 µg/mL (≈ 94.2 µM)
- solubility at 72 h ([7]; FaSSGF, 37 °C, pH 1.6, fassgf or other biorelevant, thermodynamic from solid, FaSSGF (pH 1.6), 37 ± 2.0 °C, read-out: Solubility): 146 ± 12 µg/mL (≈ 550 µM)
- solubility at 72 h ([7]; FaSSGF, 37 °C, pH 1.6, fassgf or other biorelevant, thermodynamic from solid, FaSSGF, read-out: solubility): ~146 µg/mL (≈ 550 µM)
- solubility at 72 h ([7]; FaSSIF, 37 °C, pH 6.5, fassif, thermodynamic from solid, FaSSIF (pH 6.5), 37 ± 2.0 °C, read-out: Solubility): 8 ± 1 µg/mL (≈ 30.2 µM)
- solubility at 72 h ([7]; FaSSIF, 37 °C, pH 6.5, fassif, thermodynamic from solid, FaSSIF, read-out: solubility): 8.2 µg/mL (≈ 30.9 µM)
- solubility in FeSSIF compared to FaSSIF ([7]; FeSSIF vs FaSSIF): 2 fold
- solubility at 72 h ([7]; FeSSIF, pH 5, FeSSIF (pH 5.0), 37 ± 2.0 °C, read-out: Solubility): 21 ± 4 µg/mL (≈ 79.1 µM)
- solubility at 72 h ([7]; FeSSIF, pH 5, FeSSIF, read-out: solubility): ~20.5 µg/mL (≈ 77.3 µM)
- Fold error, AUC0–∞ (predicted parameter/observed parameter) [3]: 1.13
- Fold error, Cmax (predicted parameter/observed parameter) [3]: 1.16
- dissolution in FaSSGF within 30 min ([8]; 40 mg dose, FaSSGF 250 mL pH 1.6): completely dissolved
- precipitation upon transfer to FaSSIF ([8]; 40 mg dose, FaSSIF pH 6.5): immediate precipitation
- Critical Supersaturation Ratio (CSR) ([8]; set from transfer experiment, FaSSIF): 1
- Precipitation rate constant (PRC) ([8]; set from transfer experiment): 1000 h⁻¹
- Precipitation rate constant (PRC) ([8]; set from transfer experiment, listed as Albendazole): 1000 (max. value) 1/h
- solubility at 72 h (physchem): 12 µg/mL (≈ 45.2 µM)
